In patent publication US20100204219A1, “AROMATIC 1,4-DI-CARBOXYLAMIDES AND THEIR USE” (priority 2006, published 2010):

Molecular target: T1, βCat-BCL9 (beta-Catenin/BCL9-BCL9L interaction) (Homo sapiens, UniProt P35222)
T1 sequence (P35222 1-781): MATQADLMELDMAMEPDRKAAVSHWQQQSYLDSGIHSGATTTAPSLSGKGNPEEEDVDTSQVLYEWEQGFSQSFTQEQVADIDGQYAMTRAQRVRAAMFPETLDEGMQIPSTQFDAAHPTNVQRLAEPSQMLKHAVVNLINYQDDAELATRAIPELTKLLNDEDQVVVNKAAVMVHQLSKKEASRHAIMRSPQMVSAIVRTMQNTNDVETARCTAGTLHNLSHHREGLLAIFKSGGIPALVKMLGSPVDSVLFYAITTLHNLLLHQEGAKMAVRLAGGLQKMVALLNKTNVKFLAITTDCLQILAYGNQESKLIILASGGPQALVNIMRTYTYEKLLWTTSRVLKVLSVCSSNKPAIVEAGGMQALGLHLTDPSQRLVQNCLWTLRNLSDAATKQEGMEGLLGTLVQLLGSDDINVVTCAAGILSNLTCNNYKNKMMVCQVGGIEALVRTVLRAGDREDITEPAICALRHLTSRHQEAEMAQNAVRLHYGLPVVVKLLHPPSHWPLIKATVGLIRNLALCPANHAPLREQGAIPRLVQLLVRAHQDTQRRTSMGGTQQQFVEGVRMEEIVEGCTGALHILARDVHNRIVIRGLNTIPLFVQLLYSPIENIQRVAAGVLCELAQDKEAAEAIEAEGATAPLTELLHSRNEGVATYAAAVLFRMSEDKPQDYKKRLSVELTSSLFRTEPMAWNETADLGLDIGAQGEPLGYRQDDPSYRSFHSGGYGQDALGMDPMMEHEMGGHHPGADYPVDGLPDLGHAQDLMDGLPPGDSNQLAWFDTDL
Assay: ELISA based protein-protein interaction assay, βCat-BCL9
Assay type: binding
Conditions: Example 1
Source text: cDNAs including the binding domains of Lgs and beta-Catenin were fused down-stream of glutathione-S-transferase (GST) cDNA in pGEX-4T inducible bacterial expression vector (Pharmacia). Similar recombinant DNA constructs were generated in the pET-32a(+) vector (Novagen) for expression of fusion protein containing the Thioredoxine-6His tag at their N-terminus. Fusion proteins were produced in BL21 bacteria (e.g. Stratagene) following manufacturer's recommendation.
To isolate the produced fusions protein, bacteria were ground in aluminum oxide (Sigma, A2039) and the resulting powder extracted in lysis buffer (140 mM NaCl, 10 mM Na2HPO4, 1.8 mM KH2PO4, 2.7 mM KCl, 1 mM EDTA, 1% Triton-X-100, 1 mM DTT and protease inhibitors) under rotation for 30 minutes. Supernatants were cleared by centrifugation then filtered on a 0.45 μm membrane before protein purification. For GST tagged protein, lysate were processed on glutathione agarose beads following manufacturer's recommendation (Amersham Pharmacia) and purified proteins eluted in 50 mM Tris-Cl, 10 mM reduced glutathione pH8.0. For thioredoxine-6His fusions, tagged proteins were purified from the lysate on a nickel chelating column (e.g. Hitrap chelating, G.E. Healthcare) using an HPLC system (e.g. Akta Prime, G.E. Healthcare) and eluted under increasing concentration of imidazole. The purified proteins solution was dialyzed against PBS before use. The quality of the preparations was checked by SDS-gel electrophoresis by standard methods well known by persons skilled in the art.
Compound preparation: Compounds can be prepared as 25 mM stock in DMSO and diluted in DMSO to reach final test concentrations of up to 100 μM. Final DMSO concentration in the assay is 5%.
100 μl of GST fusion protein (e.g. GST-βCatenin) diluted to the appropriate concentration in phosphate buffer saline are added per well to a 96 well plate with high protein binding capacity (e.g. Nunc Maxisorp) and placed at 4° C. overnight. The following day the liquid in the wells is discarded and 150 μl 3% bovine serum albumin (BSA) in PBS are added to each well and incubated at room temperature for 2 hours under moderate shaking. This solution is then discarded and each well washed twice with 200 μl PBS. After carefully discarding the second wash, a mixture of 5 μl compound dilution and 95 μl 6His fusion protein (e.g. 6His-Bcl9) diluted to the appropriate concentration in PBS is added to each well. The plate is then incubated for 1 hour at room temperature under moderate shaking. This protein solution is then discarded and the wells washed 3 times with 200 μl 0.1% Tween-20 solution in PBS. After carefully discarding the final wash, 100 μl of anti 6His antibody conjugated to the horse-radish peroxidase (e.g. Roche antibody 11965085001) at the appropriate dilution in 1% BSA in PBS is added to the wells and the plate incubated for 1 hour at room temperature under moderate shaking. This solution is then discarded and the wells washed 3 times with 200 μl 0.1% Tween-20 solution in PBS. After carefully discarding the final wash, 100 μl of HRP substrate […] (TMB) in solution (e.g. Sigma T0440) is added to the wells and the plate incubated up to 30 minutes in the dark at room temperature. The reaction is stopped by addition of 100 μl of 2N HCl to each well and the optical density is measured at 450 nm and 630 nm.

IC50 [µM] | Compound
> 10 | O=C(Nc1ccc(-c2cnc(-c3ccc(NC(=O)c4ccco4)cc3)nc2)cc1)c1ccco1 [TGC0011531]
> 100 | O=C(Nc1ccc(-c2cnc(-c3ccc(NC(=O)c4ccc(Br)cc4)cc3)nc2)cc1)c1ccc(Br)cc1 [TGC0011533]
> 100 | CC(C)(C)C(=O)Nc1ccc(C(=O)Nc2ccc(-c3cnc(-c4ccc(NC(=O)c5ccc(NC(=O)C(C)(C)C)cc5)cc4)nc3)cc2)cc1 [TGC0011534]
> 100 | O=C(COc1ccc(Br)cc1)Nc1ccc(-c2cnc(-c3ccc(NC(=O)COc4ccc(Br)cc4)cc3)nc2)cc1 [TGC0011565]
> 10 | COc1ccc(CCNC(=O)c2cnc(C(=O)NCCc3ccc(OC)c(OC)c3)cn2)cc1OC [TGC0011592]
> 100 | COc1ccc(CCNC(=O)c2ccc(C(=O)NCCc3ccc(OC)c(Cl)c3)nc2)cc1Cl [TGC0011593]
> 100 | O=C(Nc1cccnc1O)c1ccc(C(=O)Nc2cccnc2O)nc1 [TGC0012261]
38 | COc1ccc(CCNC(=O)c2ccc(-c3ccc(C(=O)NCCc4ccc(OC)c(OC)c4)cn3)nc2)cc1OC [TGC0012281]
> 50 | O=C(Nc1ccc(F)c(F)c1)c1ccc(C(=O)Nc2ccc(F)c(F)c2)nc1 [TGC0012289]
> 50 | O=C(O)c1ccc(NC(=O)c2ccc(C(=O)Nc3ccc(C(=O)O)cc3)cc2)cc1 [TGC0012290]
> 50 | COc1cc(C(=O)Nc2ccncc2)c(OC)cc1C(=O)Nc1ccncc1 [TGC0012291]
> 50 | CC(=O)Nc1ccc(NC(=O)c2ccc(C(=O)Nc3ccc(NC(C)=O)cc3)cc2)cc1 [TGC0012292]
> 10 | NC(=O)c1ccc(NC(=O)c2ccc(C(=O)Nc3ccc(C(N)=O)cc3)cc2)cc1 [TGC0012293]
> 100 | O=C(O)c1cccc(NC(=O)c2ccc(C(=O)Nc3cccc(C(=O)O)c3)cc2)c1 [TGC0012297]
> 10 | N#Cc1ccccc1NC(=O)c1ccc(C(=O)Nc2ccccc2C#N)cc1 [TGC0012300]
> 50 | N#Cc1cccc(NC(=O)c2ccc(C(=O)Nc3cccc(C#N)c3)cc2)c1 [TGC0012301]
7 | COc1cc(NC(=O)c2ccc(C(=O)Nc3ccc(OC)c(OC)c3)nc2)cc(OC)c1 [TGC0012408]
5 | COc1ccc(NC(=O)c2ccc(C(=O)Nc3ccc(NC(C)=O)cc3)cn2)cc1 [TGC0012409]
